Test results taken from the NIST ThermoML archive (doi:10.1021/je060389r).
Numbers after ± are expanded uncertainties.

How the values were obtained:
[1] = 298.15 K, 101 kPa, Liquid; for viscosity: Capillary tube (Ostwald / Ubbelohde) method; for speed of sound: Linear variable-path acoustic interferometer; for mass density: Pycnometric method
[2] = xn = mol fraction of the nth substance listed; conditions: 298.15 K, 101 kPa, Liquid; for viscosity: Capillary tube (Ostwald / Ubbelohde) method; for speed of sound: Linear variable-path acoustic interferometer; for mass density: Pycnometric method

## CC(C)CO [2-methyl-1-propanol]
[1]
  viscosity: 3.404 ± 0.029 mPa·s
  speed of sound: 1191.3 ± 9.6 m/s
  mass density: 798.2 ± 0.4 kg/m3

## CC(C)CO [2-methyl-1-propanol] + CCCCCC
[2]; x1 = 0.0554
  viscosity: 0.323 ± 0.012 mPa·s
  speed of sound: 1077.5 ± 8.7 m/s
  mass density: 660.1 ± 0.4 kg/m3
[2]; x1 = 0.104
  viscosity: 0.337 ± 0.012 mPa·s
  speed of sound: 1077.5 ± 8.7 m/s
  mass density: 664.9 ± 0.4 kg/m3
[2]; x1 = 0.2
  viscosity: 0.373 ± 0.012 mPa·s
  speed of sound: 1080.1 ± 8.7 m/s
  mass density: 675.1 ± 0.4 kg/m3
[2]; x1 = 0.3274
  viscosity: 0.462 ± 0.012 mPa·s
  speed of sound: 1086.7 ± 8.8 m/s
  mass density: 690.1 ± 0.4 kg/m3
[2]; x1 = 0.4173
  viscosity: 0.547 ± 0.013 mPa·s
  speed of sound: 1094.1 ± 8.8 m/s
  mass density: 701.6 ± 0.4 kg/m3
[2]; x1 = 0.4666
  viscosity: 0.606 ± 0.013 mPa·s
  speed of sound: 1099.2 ± 8.9 m/s
  mass density: 708.3 ± 0.4 kg/m3
[2]; x1 = 0.5057
  viscosity: 0.659 ± 0.013 mPa·s
  speed of sound: 1103.5 ± 8.9 m/s
  mass density: 713.8 ± 0.4 kg/m3
[2]; x1 = 0.5589
  viscosity: 0.748 ± 0.013 mPa·s
  speed of sound: 1110 ± 9 m/s
  mass density: 721.5 ± 0.4 kg/m3
[2]; x1 = 0.609
  viscosity: 0.859 ± 0.013 mPa·s
  speed of sound: 1116.9 ± 9 m/s
  mass density: 729 ± 0.4 kg/m3
[2]; x1 = 0.7073
  viscosity: 1.162 ± 0.014 mPa·s
  speed of sound: 1132.5 ± 9.2 m/s
  mass density: 744.6 ± 0.4 kg/m3
[2]; x1 = 0.8051
  viscosity: 1.627 ± 0.017 mPa·s
  speed of sound: 1150 ± 9.3 m/s
  mass density: 761.2 ± 0.4 kg/m3
[2]; x1 = 0.861
  viscosity: 2.004 ± 0.019 mPa·s
  speed of sound: 1161.3 ± 9.4 m/s
  mass density: 771.2 ± 0.4 kg/m3
[2]; x1 = 0.9149
  viscosity: 2.454 ± 0.022 mPa·s
  speed of sound: 1172.5 ± 9.5 m/s
  mass density: 781.3 ± 0.4 kg/m3
[2]; x1 = 0.9376
  viscosity: 2.67 ± 0.023 mPa·s
  speed of sound: 1177.5 ± 9.5 m/s
  mass density: 785.7 ± 0.4 kg/m3
[2]; x1 = 1
  viscosity: 3.404 ± 0.029 mPa·s
  speed of sound: 1191.3 ± 9.6 m/s
  mass density: 798.2 ± 0.4 kg/m3

## CC(C)CO [2-methyl-1-propanol] + CCCCCCCC
[2]; x1 = 0.0589
  viscosity: 0.527 ± 0.013 mPa·s
  speed of sound: 1168.3 ± 9.4 m/s
  mass density: 701.5 ± 0.4 kg/m3
[2]; x1 = 0.1165
  viscosity: 0.535 ± 0.013 mPa·s
  speed of sound: 1166.5 ± 9.4 m/s
  mass density: 704.5 ± 0.4 kg/m3
[2]; x1 = 0.205
  viscosity: 0.576 ± 0.013 mPa·s
  speed of sound: 1164.8 ± 9.4 m/s
  mass density: 709.8 ± 0.4 kg/m3
[2]; x1 = 0.2792
  viscosity: 0.617 ± 0.013 mPa·s
  speed of sound: 1164 ± 9.4 m/s
  mass density: 714.7 ± 0.4 kg/m3
[2]; x1 = 0.3371
  viscosity: 0.663 ± 0.013 mPa·s
  speed of sound: 1163.1 ± 9.4 m/s
  mass density: 718.9 ± 0.4 kg/m3
[2]; x1 = 0.4081
  viscosity: 0.719 ± 0.013 mPa·s
  speed of sound: 1162.7 ± 9.4 m/s
  mass density: 724.6 ± 0.4 kg/m3
[2]; x1 = 0.4662
  viscosity: 0.788 ± 0.013 mPa·s
  speed of sound: 1163.3 ± 9.4 m/s
  mass density: 729.6 ± 0.4 kg/m3
[2]; x1 = 0.5126
  viscosity: 0.85 ± 0.013 mPa·s
  speed of sound: 1163.7 ± 9.4 m/s
  mass density: 733.9 ± 0.4 kg/m3
[2]; x1 = 0.6126
  viscosity: 1.028 ± 0.014 mPa·s
  speed of sound: 1166.3 ± 9.4 m/s
  mass density: 744.1 ± 0.4 kg/m3
[2]; x1 = 0.6615
  viscosity: 1.154 ± 0.014 mPa·s
  speed of sound: 1168.4 ± 9.4 m/s
  mass density: 749.5 ± 0.4 kg/m3
[2]; x1 = 0.7069
  viscosity: 1.3 ± 0.015 mPa·s
  speed of sound: 1170 ± 9.5 m/s
  mass density: 754.9 ± 0.4 kg/m3
[2]; x1 = 0.7855
  viscosity: 1.634 ± 0.017 mPa·s
  speed of sound: 1173.5 ± 9.5 m/s
  mass density: 765 ± 0.4 kg/m3
[2]; x1 = 0.8615
  viscosity: 2.102 ± 0.019 mPa·s
  speed of sound: 1178.6 ± 9.5 m/s
  mass density: 775.8 ± 0.4 kg/m3
[2]; x1 = 0.9523
  viscosity: 2.875 ± 0.025 mPa·s
  speed of sound: 1187 ± 9.6 m/s
  mass density: 790.1 ± 0.4 kg/m3
[2]; x1 = 1
  viscosity: 3.404 ± 0.029 mPa·s
  speed of sound: 1191.3 ± 9.6 m/s
  mass density: 798.2 ± 0.4 kg/m3

## CC(C)CO [2-methyl-1-propanol] + CCCCCCCCCC
[2]; x1 = 0.0728
  viscosity: 0.848 ± 0.013 mPa·s
  speed of sound: 1228.7 ± 9.9 m/s
  mass density: 728.1 ± 0.4 kg/m3
[2]; x1 = 0.1021
  viscosity: 0.859 ± 0.013 mPa·s
  speed of sound: 1226.6 ± 9.9 m/s
  mass density: 729 ± 0.4 kg/m3
[2]; x1 = 0.2032
  viscosity: 0.89 ± 0.013 mPa·s
  speed of sound: 1219.9 ± 9.9 m/s
  mass density: 732.6 ± 0.4 kg/m3
[2]; x1 = 0.2976
  viscosity: 0.934 ± 0.014 mPa·s
  speed of sound: 1215.2 ± 9.8 m/s
  mass density: 736.4 ± 0.4 kg/m3
[2]; x1 = 0.3547
  viscosity: 0.976 ± 0.014 mPa·s
  speed of sound: 1212.2 ± 9.8 m/s
  mass density: 739 ± 0.4 kg/m3
[2]; x1 = 0.4171
  viscosity: 1.023 ± 0.014 mPa·s
  speed of sound: 1209.4 ± 9.8 m/s
  mass density: 742.1 ± 0.4 kg/m3
[2]; x1 = 0.5016
  viscosity: 1.119 ± 0.014 mPa·s
  speed of sound: 1206.1 ± 9.8 m/s
  mass density: 747 ± 0.4 kg/m3
[2]; x1 = 0.6084
  viscosity: 1.297 ± 0.015 mPa·s
  speed of sound: 1201.8 ± 9.7 m/s
  mass density: 754.2 ± 0.4 kg/m3
[2]; x1 = 0.6575
  viscosity: 1.415 ± 0.016 mPa·s
  speed of sound: 1200.2 ± 9.7 m/s
  mass density: 758 ± 0.4 kg/m3
[2]; x1 = 0.7027
  viscosity: 1.543 ± 0.016 mPa·s
  speed of sound: 1198.4 ± 9.7 m/s
  mass density: 761.9 ± 0.4 kg/m3
[2]; x1 = 0.8004
  viscosity: 1.942 ± 0.018 mPa·s
  speed of sound: 1195.1 ± 9.7 m/s
  mass density: 771.6 ± 0.4 kg/m3
[2]; x1 = 0.8952
  viscosity: 2.503 ± 0.022 mPa·s
  speed of sound: 1192.9 ± 9.6 m/s
  mass density: 782.9 ± 0.4 kg/m3
[2]; x1 = 0.9497
  viscosity: 2.928 ± 0.025 mPa·s
  speed of sound: 1192 ± 9.6 m/s
  mass density: 790.5 ± 0.4 kg/m3
[2]; x1 = 0.9848
  viscosity: 3.249 ± 0.028 mPa·s
  speed of sound: 1191.8 ± 9.6 m/s
  mass density: 795.8 ± 0.4 kg/m3
[2]; x1 = 1
  viscosity: 3.404 ± 0.029 mPa·s
  speed of sound: 1191.3 ± 9.6 m/s
  mass density: 798.2 ± 0.4 kg/m3

## CCCCCCCCCC [decane]
[1]
  viscosity: 0.845 ± 0.013 mPa·s
  speed of sound: 1235.4 ± 10 m/s
  mass density: 725.9 ± 0.4 kg/m3

## CCCCCCCCCC [decane] + CC(C)CO
[2]; x2 = 0
  viscosity: 0.845 ± 0.013 mPa·s
  speed of sound: 1235.4 ± 10 m/s
  mass density: 725.9 ± 0.4 kg/m3

## CCCCCC [hexane]
[1]
  viscosity: 0.313 ± 0.012 mPa·s
  speed of sound: 1078.5 ± 8.7 m/s
  mass density: 654.9 ± 0.4 kg/m3

## CCCCCC [hexane] + CC(C)CO
[2]; x2 = 0
  viscosity: 0.313 ± 0.012 mPa·s
  speed of sound: 1078.5 ± 8.7 m/s
  mass density: 654.9 ± 0.4 kg/m3

## CCCCCCCC [octane]
[1]
  viscosity: 0.518 ± 0.013 mPa·s
  speed of sound: 1170.9 ± 9.5 m/s
  mass density: 698.6 ± 0.4 kg/m3

## CCCCCCCC [octane] + CC(C)CO
[2]; x2 = 0
  viscosity: 0.518 ± 0.013 mPa·s
  speed of sound: 1170.9 ± 9.5 m/s
  mass density: 698.6 ± 0.4 kg/m3
